Converted amounts (≈) assume the structure as drawn.
Legend:
[1] = J. Med. Pharm. Chem. 5, p. 1118, Tab. 9; cited from earlier work
physchem = conditions: water
25 coli strains = test: Anti-bacterial action test with discs impregnated with 25 μg of substance (arresting circle diameter); assay type: cell-based; conditions: mean (x) over 25 coli strains
Method: The test for anti-bacterial action […] was performed with discs which were each impregnated with 25 μg of the two substances A and B: […]

[2] = Anti-bacterial action, general statement; conditions: in words; compared with conventional bactericide 5-nitro-8-hydroxycholine
Excerpt: These physical properties are required in order to meet the fundamental needs for resorption required in oral adminstration.

[3] = Toxicity, general statement; conditions: in words; compared with conventional bactericide 5-nitro-8-hydroxycholine
in vivo = conditions: rat, rats

Structure (SMILES)	bactericidal activity [1]	solubility (physchem) [µg/mL]	zone of inhibition at 25 µg/disc (25 coli strains) [mm]	anti-bacterial action [2]	degree of toxicity [3]	LD50 (in vivo) [mg/kg]
COc1ccc(Cc2cnc(N)nc2N)cc1OC [2,4-diamino-5-(3'-4'-dimethoxybenzyl)-pyrimidine]	has bactericidal activity					
COCCOc1c(OC)cc(Cc2cnc(N)nc2N)cc1OC [substance B, 2,4-diamino-5-(3',5'-dimethoxy-4'-methyldioxyethylene-benzyl)-pyrimidine]		8000 (≈ 23.9 mM)	28.5	improved anti-bacterial action	substantially lower degree of toxicity	
COc1cc(Cc2cnc(N)nc2N)cc(OC)c1OC [2,4-diamino-5-(3',4',5'-trimethoxy-benzyl)-pyrimidine]	such activity is present in the maximum degree	670 (≈ 2.31 mM)				
O=[N+]([O-])c1ccc(O)c2ncccc12 [substance A, 5-nitro-8-hydrocholine]			20.7			830
